Among the test systems are A498; A549; CAKI-1; DU-145; HCT-15; HT-29; KM12; LOX IMVI; MDA-MB-231; Malme-3M; NCI/ADR-RES; PC-3; SK-MEL-28; SK-OV-3; SNB-19; SNB-75; T47D; TK-10; UO-31; SR.
Common to all, as to experiment: growth of human tumour cells (NCI), 48 h

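Exposure lasted 48 hours, with cells grown in 96-well plates and compounds tested at five concentrations. GI50: concentration for 50% inhibition of growth.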 Active and inactive are the calls of the source. Rule as the data show it: active = GI50 up to about 1.1 µM and inactive = higher. Bounds are passed on as bounds.

With `c1ccc2c(c1)Oc1cccc3cccc-2c13`, the GI50 was > 100 µM (inactive) in the assay with A498; > 100 µM (inactive) in the assay on A549; > 100 µM (inactive) with CAKI-1; > 100 µM (inactive) in the assay with DU-145; 98.4 µM in the assay on HCT-15; > 100 µM (inactive) in the assay on HT-29. For the same compound, the GI50 in the assay on KM12, in the assay with LOX IMVI, with MDA-MB-231, in the assay on Malme-3M, in the assay with NCI/ADR-RES and in the assay on PC-3 was > 100 µM (inactive) throughout. Further, the GI50 in the assay with SK-MEL-28, in the assay with SK-OV-3, in the assay with SNB-19, with SNB-75, in the assay on T47D and with TK-10 was > 100 µM (inactive) throughout. Besides, the GI50 in the assay with UO-31 is > 100 µM (inactive).

Take `CC(N/N=C(\S)N1CCN(c2ccccn2)CC1)c1cccc[n+]1[O-]` (configuration not stated): the GI50 is 8.65 µM (inactive) in the assay on A549; 14.2 µM (inactive) with CAKI-1; 57.1 µM (inactive) in the assay on DU-145; 3.28 µM with HCT-15; 0.661 µM (active) in the assay on HT-29; 52.4 µM (inactive) in the assay on KM12. Further, the GI50 with LOX IMVI was 8.17 µM (inactive); in the assay on MDA-MB-231, 19 µM (inactive); in the assay on NCI/ADR-RES, 2.9 µM (inactive); in the assay with PC-3, 15.3 µM (inactive); in the assay on SK-MEL-28, 16.8 µM (inactive); with SNB-19, 32.9 µM (inactive). Also, the GI50 in the assay on SNB-75 was 48.6 µM (inactive); with SR, 4.58 µM (inactive); with T47D it was 77.1 µM (inactive); in the assay on TK-10, 32 µM (inactive); in the assay with UO-31 it was 8.13 µM (inactive).

For `[N-]=[N+]=Nc1c(Cc2ccccc2)c(=O)oc2ccccc12`, the GI50 in the assay with A549 is 32.5 µM (inactive); in the assay on CAKI-1 it was 23.8 µM (inactive); with DU-145 it was 51.9 µM (inactive); in the assay with HCT-15, 31 µM; with HT-29 it was 21.7 µM (inactive); with LOX IMVI it was 14.2 µM (inactive). Moreover, the GI50 in the assay on MDA-MB-231 is 39.3 µM (inactive); with Malme-3M, 38.3 µM (inactive); with NCI/ADR-RES, 27.6 µM (inactive); in the assay on PC-3, 22.9 µM (inactive); with SK-MEL-28, > 10 µM (inactive); in the assay with SK-OV-3, 32.1 µM (inactive). The GI50 is 27.2 µM (inactive) in the assay with SNB-19; 28.6 µM (inactive) in the assay with SNB-75; 33.4 µM (inactive) with SR; 56.8 µM (inactive) in the assay on T47D; 28.2 µM (inactive) in the assay with TK-10; 36.1 µM (inactive) in the assay with UO-31.

In the case of `Oc1cccc2cc(Cl)cnc12`, the GI50 in the assay on A498 was 23.8 µM (inactive); in the assay with A549, 7.08 µM (inactive); in the assay with CAKI-1, 55.1 µM (inactive); in the assay on DU-145 it was 31.5 µM (inactive); with HCT-15 it was 3.82 µM; in the assay with HT-29, 28.2 µM (inactive). The GI50 is 14.8 µM (inactive) in the assay on KM12; 5.04 µM (inactive) in the assay with LOX IMVI; 9.68 µM (inactive) in the assay with MDA-MB-231; > 30.3 µM (inactive) in the assay on Malme-3M; 3.48 µM (inactive) in the assay with NCI/ADR-RES; 10.6 µM (inactive) in the assay on PC-3. The GI50 was 58.7 µM (inactive) with SK-MEL-28; 50.4 µM (inactive) in the assay on SK-OV-3; > 32.4 µM (inactive) in the assay on SNB-19; 28.1 µM (inactive) in the assay on SNB-75; 4.42 µM (inactive) with T47D; 39.5 µM (inactive) in the assay with TK-10. The GI50 with UO-31 is 8.09 µM (inactive).

Turning to `COc1ccc(C(=O)/C=C/c2ccc(OCCCOc3ccc(/C=C/C(=O)c4ccc(OC)c(OC)c4)cc3)cc2)cc1OC`, the GI50 is > 100 µM (inactive) with A549; > 100 µM (inactive) with CAKI-1; > 100 µM (inactive) in the assay on DU-145; > 100 µM in the assay on HCT-15; > 100 µM (inactive) in the assay on HT-29; > 100 µM (inactive) in the assay with KM12. Besides, the GI50 in the assay with MDA-MB-231, with NCI/ADR-RES, with PC-3, in the assay on SK-MEL-28, in the assay with SK-OV-3 and with SNB-19 was > 100 µM (inactive) throughout. The GI50 in the assay on SNB-75, in the assay on SR, in the assay on T47D, with TK-10 and in the assay with UO-31 was > 100 µM (inactive) in each case.

Consider `COC1CC(NC(=O)C(F)(F)F)C(OC(C)=O)C(C)O1` (configuration not stated), for which the GI50 with A549 is > 100 µM (inactive); in the assay on CAKI-1, > 100 µM (inactive); in the assay on DU-145 it was > 100 µM (inactive); with HCT-15 it was > 100 µM; in the assay with HT-29 it was > 100 µM (inactive); in the assay with KM12 it was > 100 µM (inactive). Besides, the GI50 in the assay on LOX IMVI, in the assay on MDA-MB-231, in the assay on Malme-3M, with NCI/ADR-RES, with PC-3 and in the assay with SK-MEL-28 was > 100 µM (inactive) each time. For the same compound, the GI50 in the assay on SK-OV-3, in the assay with SNB-19, in the assay on SNB-75, in the assay with SR, in the assay with T47D and in the assay with TK-10 was > 100 µM (inactive) throughout. Moreover, the GI50 in the assay with UO-31 was > 100 µM (inactive).

`O=c1cc(/N=N\c2ccc(Br)cc2)[nH]c(=S)[nH]1`: the GI50 was > 100 µM (inactive) in the assay with A549; 10.4 µM (inactive) in the assay with CAKI-1; 61.1 µM (inactive) in the assay with DU-145; 14.9 µM in the assay with HCT-15; 18.4 µM (inactive) in the assay with HT-29; 45.1 µM (inactive) with KM12. Moreover, the GI50 with LOX IMVI is 15.3 µM (inactive); in the assay on MDA-MB-231, 17.6 µM (inactive); with Malme-3M, 16.4 µM (inactive); in the assay with NCI/ADR-RES it was 61.2 µM (inactive); with PC-3, 61.1 µM (inactive); with SK-MEL-28 it was 20.4 µM (inactive). The GI50 in the assay on SK-OV-3 was > 100 µM (inactive); in the assay with SNB-19, 61 µM (inactive); in the assay on SNB-75, > 100 µM (inactive); in the assay on SR it was 27.6 µM (inactive); in the assay with T47D, 17.3 µM (inactive); in the assay with TK-10, 17.3 µM (inactive). Moreover, in the assay on UO-31, the GI50 was 55.8 µM (inactive).

In the case of `COc1ccc(-c2c3c(n(C4OC(CO)C(O)C(O)C4O)c(=S)c2C#N)CCC3)cc1` (configuration not stated), the GI50 is 68.9 µM (inactive) with A549; > 100 µM (inactive) in the assay on CAKI-1; 66.7 µM (inactive) in the assay on DU-145; 85.7 µM with HCT-15; 40.1 µM (inactive) in the assay on HT-29; 59.3 µM (inactive) in the assay with KM12. In addition, the GI50 is 42.1 µM (inactive) with LOX IMVI; > 100 µM (inactive) in the assay with MDA-MB-231; 57.8 µM (inactive) in the assay on Malme-3M; > 100 µM (inactive) in the assay on NCI/ADR-RES; 41.3 µM (inactive) with PC-3; 35.1 µM (inactive) in the assay with SK-MEL-28. For the same compound, the GI50 in the assay with SK-OV-3 is 91.4 µM (inactive); in the assay with SNB-19, 37.7 µM (inactive); in the assay with SNB-75, 59.4 µM (inactive); in the assay with SR, 38.4 µM (inactive); in the assay on T47D, 44.9 µM (inactive); in the assay with TK-10, > 100 µM (inactive). For the same compound, the GI50 in the assay with UO-31 is > 100 µM (inactive).

As to `O=C(CSc1nc2ccc(I)cc2c(=O)n1Cc1ccccc1)NN1C(=O)CCC1=O`, the GI50 is 49.4 µM (inactive) in the assay on A549; 1.65 µM (inactive) in the assay on CAKI-1; > 100 µM (inactive) with DU-145; 22.5 µM in the assay on HCT-15; 48.6 µM (inactive) in the assay with HT-29; 37.2 µM (inactive) with KM12. Also, the GI50 in the assay with LOX IMVI was 59.3 µM (inactive); in the assay with MDA-MB-231, 32.4 µM (inactive); in the assay with NCI/ADR-RES it was 37.2 µM (inactive); in the assay with PC-3 it was 30.1 µM (inactive); in the assay on SK-MEL-28, 61.4 µM (inactive); with SK-OV-3, 52 µM (inactive). Moreover, the GI50 is 85.3 µM (inactive) in the assay on SNB-19; 36.3 µM (inactive) in the assay with SNB-75; 31.9 µM (inactive) in the assay with SR; 40 µM (inactive) with T47D; 84.5 µM (inactive) in the assay with TK-10.

For `NC(=O)Cc1nc2c(O)ncnc2n1C1OC(CO)C(O)C1O` (configuration not stated), the GI50 in the assay with A498 was > 100 µM (inactive); in the assay on A549, > 100 µM (inactive); in the assay on CAKI-1, > 100 µM (inactive); in the assay with DU-145 it was > 100 µM (inactive); in the assay on HCT-15 it was > 100 µM; with HT-29, > 100 µM (inactive). Also, the GI50 in the assay with KM12, in the assay with LOX IMVI, in the assay with MDA-MB-231, in the assay with Malme-3M, with NCI/ADR-RES and in the assay on PC-3 was > 100 µM (inactive) throughout. Also, the GI50 in the assay with SK-MEL-28, in the assay with SK-OV-3, in the assay on SNB-19, in the assay on SNB-75, in the assay with T47D and in the assay with TK-10 was > 100 µM (inactive) throughout. In addition, the GI50 with UO-31 is > 100 µM (inactive).

`COC(C)(C)C(O)C(O)C[C@H](C)C1CC=C2C1(C)CCC1[C@@]3(C)CCC(OC(C)=O)C(C)(C)C3CC(OC3OC(COC(C)=O)C(O)C(O)C3O)[C@@]21C` (some centres not stated): the GI50 in the assay with A498 is 3.31 µM (inactive); in the assay with A549 it was 4.13 µM (inactive); in the assay on CAKI-1 it was > 10 µM (inactive); in the assay on DU-145 it was 7.1 µM (inactive); in the assay with HCT-15 it was 3.85 µM; with HT-29, 3.41 µM (inactive). The GI50 with KM12 was 2.92 µM (inactive); in the assay on LOX IMVI, 2.32 µM (inactive); in the assay on MDA-MB-231, 2.5 µM (inactive); with Malme-3M, 5.55 µM (inactive); in the assay on NCI/ADR-RES, > 10 µM (inactive); in the assay with PC-3, 3.48 µM (inactive). Besides, the GI50 was 4.57 µM (inactive) with SK-MEL-28; > 10 µM (inactive) with SK-OV-3; 5.01 µM (inactive) with SNB-19; 3.7 µM (inactive) in the assay with SNB-75; 5.13 µM (inactive) in the assay on T47D; 4.53 µM (inactive) with TK-10. For the same compound, the GI50 with UO-31 is 0.287 µM (active).

The values above are taken from ChEMBL document CHEMBL1201862, “PubChem BioAssay data set” (2004).
